Results reported in patent publication US20230382889A1 (Volastra Therapeutics, Inc., priority 2022, published 2023).

Assays:
HCC15 cells = test: Cell viability of KIF18a-sensitive cell lines, HCC15 (Cell Titre-Glo, 7 days); format: cell-based; conditions: 168 h; HCC15, 7 days; read-out: HCC15 IC50
Description: (§1) Cell lines were seeded as follows 24 hours before compound treatment: HCC15 (Korean Cell Line Bank) 600 cell/well, 95 μL of RPMI-1640 media supplemented with 100 units/mL penicillin, 100 units/mL streptomycin and 10% FBS; NIH:OVCAR-3 (ATCC), 1000 cell/well, 95 μL of RPMI-1640 media supplemented with 100 units/mL penicillin, 100 units/mL streptomycin, 0.01 mg/mL bovine insulin, and 20% FBS; JIMT-1 (Addexbio) 1000 cell/well, 95 μL of DMEM media supplemented with 100 units/mL penicillin, 100 units/mL streptomycin, and 10% FBS.
(§2) Test compounds were added to cells in a 20× dilution scheme by adding 5 μL of serially diluted compound to the plate, and the treated cells were incubated for an additional 7 days in a 37° C., 5% CO2 incubator. DMSO was used as the negative control (0% effect), and wells omitting cells were used as the positive control (100% effect). The cells were incubated for seven days, and cell viability determined via the Promega Cell Titre-Glo® Assay kit. Luminescence units were converted to ATP concentrations via an ATP standard curve (10 point, 2-fold dilution from 5 uM). % Inhibition was calculated for each well as: ([max−min]−[test−min])/[max−min]. IC50 values were calculated from concentration vs. % Inhibition data via a four-parameter variable slope model.

NIH:OVCAR-3 cells = test: Cell viability of KIF18a-sensitive cell lines, NIH:OVCAR-3 (Cell Titre-Glo, 7 days); format: cell-based; conditions: Homo sapiens, OVCAR-3, 168 h; NIH:OVCAR3, 7 days; read-out: NIH:OVCAR3 IC50
Description: as §1, §2

[1] = target: KIF18a-microtubule complex (Homo sapiens (Human), UniProt Q8NI77); test: Binding kinetics to KIF18a-microtubule complex (global progress curve analysis); conditions: for kon (on-rate from binding kinetics assay) / koff: KIF18A 0.25 nM, up to 24 hr; for koff: read-out: koff (off-rate from binding kinetics assay) (converted); for Ki: koff/kon, read-out: KI (determined from binding kinetic assay koff/kon)
Sequence of KIF18a-microtubule complex (Q8NI77 1-374, one chain of several): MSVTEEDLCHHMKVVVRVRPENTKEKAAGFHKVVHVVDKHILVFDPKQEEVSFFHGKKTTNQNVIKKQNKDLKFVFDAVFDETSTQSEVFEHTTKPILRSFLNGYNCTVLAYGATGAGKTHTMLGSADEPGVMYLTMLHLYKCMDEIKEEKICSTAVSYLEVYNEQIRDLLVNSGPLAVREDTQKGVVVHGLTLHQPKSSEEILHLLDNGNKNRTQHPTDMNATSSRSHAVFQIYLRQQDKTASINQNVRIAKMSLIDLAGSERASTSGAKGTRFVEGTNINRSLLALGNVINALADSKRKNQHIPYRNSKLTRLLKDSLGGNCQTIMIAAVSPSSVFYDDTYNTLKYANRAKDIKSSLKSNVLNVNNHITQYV
Description: Compound binding kinetics parameters (kon and koff) were determined by the method of global progress curve analysis (GPCA). […] ADP product levels were determined by the Promega® ADP-Glo assay.

hKIF18A (1-374) = hKIF18A (1-374) (Homo sapiens (Human), UniProt Q8NI77); test: Inhibition of KIF18A microtubule-dependent ATPase activity (ADP-Glo); format: biochemical; conditions: 4 nM hKIF18A (1-374)
Sequence of hKIF18A (1-374) (Q8NI77 1-374): as the sequence (Q8NI77 1-374, one chain of several) above
In short: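 Reaction was started with pre-formed microtubules and ATP (0.2 mg/mL and 2.0 mM in the added mix) and run 60 min at 28 °C. ADP was read by ADP-Glo luminescence, and IC50 came from a four-parameter fit of % inhibition.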

JIMT-1 cells = test: Cell viability of KIF18a-sensitive cell lines, JIMT-1 (Cell Titre-Glo, 7 days); format: cell-based; conditions: Homo sapiens, 168 h; JIMT-1, 7 days; read-out: JIMT-1 IC50
Description: as §1, §2

| SMILES | IC50 (HCC15 cells) [nM] | IC50 (NIH:OVCAR-3 cells) [nM] | kon (on-rate from binding kinetics assay) [1] [M⁻¹ s⁻¹] | koff [1] [s⁻¹] | Ki [1] [nM] | disc. t1/2 (dissociation half-life ln(2)/koff) [1] [h] | IC50 (hKIF18A (1-374)) [nM] | IC50 (JIMT-1 cells) [nM] |
| --- | --- | --- | --- | --- | --- | --- | --- | --- |
| CS(=O)(=O)Nc1ccc(-c2ncc(-c3cccc(N4CCC(F)(F)CC4)n3)[nH]2)c(N2CCC3(CC2)CC3)c1 [Compound 9, N-(4-(5-(6-(4,4-difluoropiperidin-1-yl)pyridin-2-yl)-1H-imidazol-2-yl)-3-(6-azaspiro[2.5]octan-6-yl)phenyl)methanesulfonamide] | 110 | 200 | 6670 | 5.83e-05 | 8.7 | 3.3 | 21 | 100 |
| CS(=O)(=O)Nc1ccc(-c2ncc(-c3cccc(N4CCOCC4)n3)[nH]2)c(N2CCC3(CC2)CC3)c1 [Compound 10, N-(4-(5-(6-morpholinopyridin-2-yl)-1H-imidazol-2-yl)-3-(6-azaspiro[2.5]octan-6-yl)phenyl)methanesulfonamide] | 120 | 210 | 4720 | 6.67e-05 | 14 | 2.9 | 9.2 | 130 |
| CS(=O)(=O)Nc1ccc(-n2cc(-c3cccc(N4CCC(F)(F)CC4)n3)nn2)c(N2CCC3(CC2)CC3)c1 [Compound 11, N-(4-(4-(6-(4,4-difluoropiperidin-1-yl)pyridin-2-yl)-1H-1,2,3-triazol-1-yl)-3-(6-azaspiro[2.5]octan-6-yl)phenyl)methanesulfonamide] | 13 | 23 | 36100 | 4.44e-06 | 0.13 | 43 | 23 | 9.1 |
| CS(=O)(=O)Nc1ccc(-n2cc(-c3cccc(N4CCC(F)(F)CC4)n3)nn2)c(N2CCCCC2)c1 [Compound 15, N-(4-(4-(6-(4,4-difluoropiperidin-1-yl)pyridin-2-yl)-1H-1,2,3-triazol-1-yl)-3-(piperidin-1-yl)phenyl)methanesulfonamide] | 12 | 18 | 21900 | 1.14e-05 | 0.52 | 17 | 6.6 | 12 |
| O=S(=O)(CCO)Nc1ccc(-n2cc(-c3cccc(N4CCC(F)(F)CC4)n3)nn2)c(N2CCC3(CC2)CC3)c1 [Compound 45, N-(4-(4-(6-(4,4-difluoropiperidin-1-yl)pyridin-2-yl)-1H-1,2,3-triazol-1-yl)-3-(6-azaspiro[2.5]octan-6-yl)phenyl)-2-hydroxyethane-1-sulfonamide] | 3.9 | 5.5 | 30600 | 6.67e-06 | 0.21 | 28 | 6.6 | 6.9 |
| Cc1cc(-c2cn(-c3ccc(NS(=O)(=O)CCO)cc3N3CCCCC3)nn2)nc(N2CCC(F)(F)CC2)n1 [Compound 67, N-(4-(4-(2-(4,4-difluoropiperidin-1-yl)-6-methylpyrimidin-4-yl)-1H-1,2,3-triazol-1-yl)-3-(piperidin-1-yl)phenyl)-2-hydroxyethane-1-sulfonamide] | 51 | 47 | 12200 | 2.06e-05 | 1.7 | 9.4 | 22 | 66 |
| Cc1cc(-c2cn(-c3ccc(NS(=O)(=O)CCO)cc3N3CCCCC3)nn2)nc(N2CCC(F)(F)CC2)c1 [Compound 68, N-(4-(4-(6-(4,4-difluoropiperidin-1-yl)-4-methylpyridin-2-yl)-1H-1,2,3-triazol-1-yl)-3-(piperidin-1-yl)phenyl)-2-hydroxyethane-1-sulfonamide] | 28 | 21 | 21900 | 1.81e-05 | 0.82 | 11 | 12 | 30 |
| O=S(=O)(CCO)Nc1ccc(-n2cc(-c3csc(N4CCC(F)(F)CC4)n3)nn2)c(N2CCC3(CC2)CC3)c1 [Compound 69, N-(4-(4-(2-(4,4-difluoropiperidin-1-yl)thiazol-4-yl)-1H-1,2,3-triazol-1-yl)-3-(6-azaspiro[2.5]octan-6-yl)phenyl)-2-hydroxyethane-1-sulfonamide] | 29 | 32 | 36100 | 1.94e-05 | 0.53 | 9.9 | 6 | 38 |
| CCS(=O)(=O)Nc1ccc(-n2cc(-c3cccc(S(=O)(=O)NC(C)(C)C)c3)nn2)c(N2CCC3(CC2)CC3)c1 [Compound 116, N-(tert-butyl)-3-(1-(4-(ethylsulfonamido)-2-(6-azaspiro[2.5]octan-6-yl)phenyl)-1H-1,2,3-triazol-4-yl)benzenesulfonamide] | 3.6 | 3.9 | – | – | – | – | 14 | 6.3 |
| CCS(=O)(=O)Nc1cc(N2CCC3(CC2)CC3)c(-n2cc(-c3cccc(S(=O)(=O)NC(C)(C)C)c3)nn2)cc1F [Compound 117, N-(tert-butyl)-3-(1-(4-(ethylsulfonamido)-5-fluoro-2-(6-azaspiro[2.5]octan-6-yl)phenyl)-1H-1,2,3-triazol-4-yl)benzenesulfonamide] | 10 | 13 | – | – | – | – | 20 | 14 |
| O=S(=O)(CCO)Nc1ccc(-n2cc(-c3ccn(C4CCC(F)(F)CC4)n3)nn2)c(N2CCC3(CCC3)CC2)c1 [Compound 130, N-(4-(4-(1-(4,4-difluorocyclohexyl)-1H-pyrazol-3-yl)-1H-1,2,3-triazol-1-yl)-3-(7-azaspiro[3.5]nonan-7-yl)phenyl)-2-hydroxyethane-1-sulfonamide] | 12 | 19 | – | – | – | – | 5 | 29 |
